Here are results for 17 compounds from patent US20250320213A1, “Nitrogen-Containing Heterocyclic Compounds” (Pfizer Inc., priority 2024, published 2025).

Where two headings read alike, the source gives them in different places.

In one assay the target is T1, STAT6 (Homo sapiens, UniProt P42226).
T1 construct: stably transfected HaCaT keratinocyte cell line, which expresses NanoLuc luciferase reporter gene under the transcriptional control of the STAT6 responsive promoter; endogenous in cells; host or cells: HaCaT keratinocyte reporter cell line (stably transfected with a NanoLuc reporter)
T1 sequence (P42226 1-847): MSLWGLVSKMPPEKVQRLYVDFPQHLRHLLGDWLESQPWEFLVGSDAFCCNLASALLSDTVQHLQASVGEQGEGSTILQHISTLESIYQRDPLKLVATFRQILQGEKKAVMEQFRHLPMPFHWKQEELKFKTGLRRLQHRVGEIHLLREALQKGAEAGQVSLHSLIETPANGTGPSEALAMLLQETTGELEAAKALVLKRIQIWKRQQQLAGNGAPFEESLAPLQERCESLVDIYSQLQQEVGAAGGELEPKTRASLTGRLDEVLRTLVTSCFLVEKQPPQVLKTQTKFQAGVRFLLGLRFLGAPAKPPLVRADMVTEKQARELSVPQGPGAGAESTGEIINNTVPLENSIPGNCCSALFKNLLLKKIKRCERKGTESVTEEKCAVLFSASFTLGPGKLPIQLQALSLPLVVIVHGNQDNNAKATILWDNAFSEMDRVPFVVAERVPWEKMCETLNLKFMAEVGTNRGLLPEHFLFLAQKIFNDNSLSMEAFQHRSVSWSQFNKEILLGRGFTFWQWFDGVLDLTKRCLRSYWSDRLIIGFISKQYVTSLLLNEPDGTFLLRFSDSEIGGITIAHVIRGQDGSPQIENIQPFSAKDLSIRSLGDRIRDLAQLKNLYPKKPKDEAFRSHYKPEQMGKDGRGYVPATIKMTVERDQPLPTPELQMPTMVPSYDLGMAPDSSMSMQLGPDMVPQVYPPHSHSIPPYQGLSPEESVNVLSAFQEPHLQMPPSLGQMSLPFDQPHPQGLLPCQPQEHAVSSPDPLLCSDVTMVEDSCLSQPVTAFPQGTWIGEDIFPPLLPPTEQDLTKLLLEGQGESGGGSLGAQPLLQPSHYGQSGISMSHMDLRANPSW
The assay can be described thus: STAT6 Reporter Luciferase Assay (IL-13 stimulated HaCaT keratinocyte NanoLuc reporter cells). Format: cell-based. The conditions noted are these: read-out: Reporter EC50. The method in brief:
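Stably transfected HaCaT cells carrying NanoLuc under the STAT6-responsive IL-13Ra2 promoter were pre-treated with compound (11-point, 4-fold series, duplicate) for 2 h at 37 °C, then stimulated with 0.12 nM IL-13 for 4 h. Nano-Glo luminescence was read after 15 min.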

The test system of assay [1] is CCL17 secretion in peripheral human whole blood. The assay can be described thus: Human Whole Blood (HWB) CCL17 TR-FRET Assay (IL-13 stimulated CCL17 secretion). It counts as cell-based. The method in brief: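 Compounds are titrated (11 points, 3-fold, duplicate) into fresh heparinized human whole blood and held 2 h at 37 °C before IL-13 challenge (10 ng/mL final). After 48 h at 37 °C, serum CCL17 is measured by TR-FRET sandwich assay and IC50 values are calculated.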
For orientation: Time-resolved FRET reads energy transfer from a long-lived donor to a nearby acceptor.

The mark [2] stands for this setting: IL-13 stimulated HaCaT STAT6 NanoLuc reporter cells.
Where [3] appears, read: Homo sapiens, 48 h, human whole blood, 10 ng/mL IL13, 48 hours.
The mark [4] stands for this setting: STAT6 NanoLuc luciferase reporter, IL-13 stimulated HaCaT keratinocyte cells.
Setting [5] is: Homo sapiens, 48 h, inhibition of CCL17 secretion in human whole blood, 10 ng/mL IL13, 48 hours.
The mark [6] stands for this setting: Homo sapiens, 48 h, human whole blood, IL-13 stimulated.
Setting [7] is: human whole blood, IL-13 stimulated, 48 hours.

What is called EC50 is the concentration giving half of the maximal effect. One may read the IC50 as the concentration at which inhibition is half-maximal. A high value points to a need for much substance. With `CC(C)n1nc(C(=O)NCc2ccc(NC(=O)N3CCC4(CCCNC4)CC3)cc2)c2c1[C@@H](C)CN(c1ccc(C(=O)N(C)C)cc1)C2` [Example 622, (S)-N-(4-((5-(4-(dimethylcarbamoyl)phenyl)-1-isopropyl-7-methyl-4,5,6,7-tetrahydro-1H-pyrazolo[4,3-c]pyridine-3-carboxamido)methyl)phenyl)-2,9-diazaspiro[5.5]undecane-9-carboxamide], the EC50 on STAT6 (setting [2]) turned out to be 4 nM. In addition, the IC50 in assay [1] (setting [3]) is 16 nM.
For `CN(C)C(=O)Nc1ccc(CNC(=O)c2c3c(nn2C2CC2)CCN(c2ccc(C(=O)N(C)C)cn2)C3)cc1` [Example 19, 2-cyclopropyl-5-(5-(dimethylcarbamoyl)pyridin-2-yl)-N-(4-(3,3-dimethylureido)benzyl)-4,5,6,7-tetrahydro-2H-pyrazolo[4,3-c]pyridine-3-carboxamide], the EC50 on STAT6 (setting [4]) was greater than 10000 nM. The compound further displayed an IC50 in assay [1] (setting [5]) of 3360 nM.
Take `CN(C)C(=O)Nc1ccc(CN2CCn3nc4c(c3C2=O)CN(c2ccc(C(=O)N(C)C)cn2)CC4)cc1` [Example 256, 6-(9-(4-(3,3-dimethylureido)benzyl)-10-oxo-3,4,7,8,9,10-hexahydropyrido[4′,3′:3,4]pyrazolo[1,5-a]pyrazin-2(1H)-yl)-N,N-dimethylnicotinamide]: at STAT6 (setting [2]), the EC50 was 28 nM. The compound also yielded an IC50 in assay [1] (setting [6]) of 190 nM.
In the case of `CNC(=O)c1ccc(CNC(=O)c2nn(C(C)C)c3c2CN(c2ccc(C(=O)N(C)C)cn2)CC3C(F)(F)F)cc1` (single isomer, unassigned) [Example 356, rel-(R or S)-5-(5-(dimethylcarbamoyl)pyridin-2-yl)-1-isopropyl-N-(4-(methylcarbamoyl)benzyl)-7-(trifluoromethyl)-4,5,6,7-tetrahydro-1H-pyrazolo[4,3-c]pyridine-3-carboxamide], the EC50 on STAT6 (setting [2]) came out at 246 nM. Further, in assay [1] (setting [7]), the IC50 stood at 3310 nM.
For `CNC1(C)CCN(C(=O)Nc2ccc(CNC(=O)c3nn(C(C)C)c4c3CN(c3ccc(C(=O)N(C)C)cc3)C[C@@H]4C)cc2)C1` (single isomer, unassigned) [Example 714, (S)-5-(4-(dimethylcarbamoyl)phenyl)-1-isopropyl-7-methyl-N-(4-((R*)-3-methyl-3-(methylamino)pyrrolidine-1-carboxamido)benzyl)-4,5,6,7-tetrahydro-1H-pyrazolo[4,3-c]pyridine-3-carboxamide], on STAT6 (setting [2]), the EC50 was 4 nM. Moreover, the IC50 in assay [1] (human whole blood, IL-13 10 ng/mL, 48 hours) is 28 nM.
As to `CC(C)n1nc(C(=O)NCc2ccc(NC(=O)N(C)C)cc2)c2c1[C@@H](C)CN(c1ccc(C(=O)N(C)C)cn1)C2` (single isomer, unassigned) [Example 128], the 50% effective concentration (EC50) on STAT6 (setting [4]) stood at 0.3 nM. In assay [1] (setting [5]), this compound gave an IC50 of 3 nM.
The corresponding values for `CC(C)n1nc(C(=O)NCc2ccc(NC(=O)N3CCC(C(F)F)CC3)cc2)c2c1CCN(c1ccc(C(=O)N(C)C)cn1)C2` [Example 161, N-(4-(4-(difluoromethyl)piperidine-1-carboxamido)benzyl)-5-(5-(dimethylcarbamoyl)pyridin-2-yl)-1-isopropyl-4,5,6,7-tetrahydro-1H-pyrazolo[4,3-c]pyridine-3-carboxamide] are 7 nM and 199 nM.
Take `CC(C)n1nc(C(=O)NCc2ccc(C(=O)NCC3CCN(C)CC3)cc2)c2c1[C@@H](C)CN(c1ccc(C(=O)N(C)C)cn1)C2` [Example 618, (S)-5-(5-(dimethylcarbamoyl)pyridin-2-yl)-1-isopropyl-7-methyl-N-(4-(((1-methylpiperidin-4-yl)methyl)carbamoyl)benzyl)-4,5,6,7-tetrahydro-1H-pyrazolo[4,3-c]pyridine-3-carboxamide]: the EC50 on STAT6 (setting [2]) was determined as 127 nM. In assay [1] (setting [3]), this compound registered an IC50 of 612 nM.
Regarding `CCc1nc(C(=O)NCc2ccc(NC(=O)N(C)C)cc2)c2n1C(C)CN(c1ccc(C(=O)N(C)C)cc1)C2` (single isomer, unassigned) [Example 429, rel-(R or S)-7-(4-(dimethylcarbamoyl)phenyl)-N-(4-(3,3-dimethylureido)benzyl)-3-ethyl-5-methyl-5,6,7,8-tetrahydroimidazo[1,5-a]pyrazine-1-carboxamide], on STAT6 (setting [2]), the EC50 turned out to be 1 nM. Besides, in assay [1] (setting [7]), the IC50 turned out to be 6 nM.
`CC(C)n1nc(C(=O)NCc2ccc(NC(=O)N3CCC(N(C)C)CC3)cc2)c2c1[C@@H](C)CN(c1ccc(C(=O)N(C)C)cn1)C2` [Example 616, (S)-N-(4-(4-(dimethylamino)piperidine-1-carboxamido)benzyl)-5-(5-(dimethylcarbamoyl)pyridin-2-yl)-1-isopropyl-7-methyl-4,5,6,7-tetrahydro-1H-pyrazolo[4,3-c]pyridine-3-carboxamide]: the EC50 on STAT6 (setting [2]) came out at 1 nM. Moreover, the IC50 in assay [1] (setting [3]) stood at 6 nM.
In the case of `CC(C)n1nc(C(=O)NCc2ccc(NC(=O)N(C)C)cc2)c2c1[C@@H](C)CN(c1ccc(C(=O)N3CCN(C)CC3)cc1)C2` [Example 706, (S)-N-(4-(3,3-dimethylureido)benzyl)-1-isopropyl-7-methyl-5-(4-(4-methylpiperazine-1-carbonyl)phenyl)-4,5,6,7-tetrahydro-1H-pyrazolo[4,3-c]pyridine-3-carboxamide], the EC50 at STAT6 (setting [2]) is 27 nM. The IC50 in assay [1] (Homo sapiens, 48 h, human whole blood, IL-13 10 ng/mL) turned out to be 191 nM.
For `CCn1nc(C(=O)NCc2ccc(NC(=O)N(C)C)cc2)c2c1[C@@H](C)CN(c1ncc(N3CCCC3=O)cn1)C2` [Example 488, (S)-N-(4-(3,3-dimethylureido)benzyl)-1-ethyl-7-methyl-5-(5-(2-oxopyrrolidin-1-yl)pyrimidin-2-yl)-4,5,6,7-tetrahydro-1H-pyrazolo[4,3-c]pyridine-3-carboxamide], the EC50 on STAT6 (setting [2]) was 3 nM. In assay [1] (setting [6]), this compound registered an IC50 of 27 nM.
The like results for `CC1c2c(C(=O)NCc3ccc(NC(=O)N(C)C)cc3)nn(C(C)C)c2[C@@H](C)CN1c1ccc(C(=O)N(C)C)cn1` (mixture of isomers) [Example 524, (4RS,7S)-5-(5-(Dimethylcarbamoyl)pyridin-2-yl)-N-(4-(3,3-dimethylureido)benzyl)-1-isopropyl-4,7-dimethyl-4,5,6,7-tetrahydro-1H-pyrazolo[4,3-c]pyridine-3-carboxamide] were, in that order, 0.1 nM and 6 nM.
In the case of `CCn1nc(C(=O)NCc2ccc(NC(=O)N(C)C)cc2)c2c1[C@@H](C)CN(c1ccc(N3CCCC3=O)cn1)C2` [Example 129, (S)-N-(4-(3,3-dimethylureido)benzyl)-1-ethyl-7-methyl-5-(5-(2-oxopyrrolidin-1-yl)pyridin-2-yl)-4,5,6,7-tetrahydro-1H-pyrazolo[4,3-c]pyridine-3-carboxamide], the EC50 on STAT6 (setting [4]) is 1 nM. This compound registered an IC50 in assay [1] (setting [5]) of 9 nM.
Take `CCC1CN(c2ccc(C(=O)N(C)C)cn2)Cc2c(C(=O)NCc3ccc(NC(=O)N(C)C)cc3)nn(C(C)C)c21` (single isomer, unassigned) [Example 311, rel-(R or S)-5-(5-(dimethylcarbamoyl)pyridin-2-yl)-N-(4-(3,3-dimethylureido)benzyl)-7-ethyl-1-isopropyl-4,5,6,7-tetrahydro-1H-pyrazolo[4,3-c]pyridine-3-carboxamide]: at STAT6 (setting [2]), the EC50 came to 1 nM. Moreover, the IC50 in assay [1] (setting [7]) was determined as 11 nM.
With `CC(C)n1nc(C(=O)NCc2ccc(NC(=O)N3CCCN(C)CC3)cc2)c2c1[C@@H](C)CN(c1ccc(C(=O)N(C)C)cc1)C2` [Example 567, (S)-5-(4-(Dimethylcarbamoyl)phenyl)-1-isopropyl-7-methyl-N-(4-(4-methyl-1,4-diazepane-1-carboxamido)benzyl)-4,5,6,7-tetrahydro-1H-pyrazolo[4,3-c]pyridine-3-carboxamide], the EC50 on STAT6 (setting [2]) was 1 nM. This compound came in with an IC50 in assay [1] (setting [3]) of 13 nM.
Take `CC(C)n1nc(C(=O)NCc2ccc(NC(=O)N3CCOCC3)cc2)c2c1CCN(c1ccc(C(=O)N(C)C)cn1)C2` [Example 173, N-(4-((5-(5-(dimethylcarbamoyl)pyridin-2-yl)-1-isopropyl-4,5,6,7-tetrahydro-1H-pyrazolo[4,3-c]pyridine-3-carboxamido)methyl)phenyl)morpholine-4-carboxamide]: on STAT6 (setting [4]), the EC50 came out at 11 nM. For the same compound, the IC50 in assay [1] (setting [5]) is 72 nM.
